How the values were obtained:
h-EP4 = h-EP4 (Homo sapiens, UniProt P35408); test: EP4 receptor binding assay (3H-PGE2 SPA); details: EP4 receptor membranes, 20 nM 3H-PGE2, pH 6.0
Protocol: Compounds of the invention were tested in an EP4 receptor binding assay of the following protocol.

h-EP2 = h-EP2 (Homo sapiens, UniProt P43116); test: Prostaglandin EP2 receptor binding assay (3H-PGE2 SPA); details: EP2 receptor membranes, 20 nM 3H-PGE2, pH 6.0
Protocol: Compounds of the invention were tested in an EP2 receptor binding assay of the following protocol. As referred to herein, the term an “EP2 receptor binding assay” designates the following protocol.

hEP2 receptors = target: T1, hEP2 receptors (Homo sapiens, UniProt P43116); test: EP2 cAMP assay, HEK293-EBNA cells transfected with pCEP4-hEP2 receptors; assay type: cell-based; details: total cAMP, 1 hour
T1 construct: expressed in transfected cells; host or cells: HEK293-EBNA
T1 sequence (P43116 whole entry): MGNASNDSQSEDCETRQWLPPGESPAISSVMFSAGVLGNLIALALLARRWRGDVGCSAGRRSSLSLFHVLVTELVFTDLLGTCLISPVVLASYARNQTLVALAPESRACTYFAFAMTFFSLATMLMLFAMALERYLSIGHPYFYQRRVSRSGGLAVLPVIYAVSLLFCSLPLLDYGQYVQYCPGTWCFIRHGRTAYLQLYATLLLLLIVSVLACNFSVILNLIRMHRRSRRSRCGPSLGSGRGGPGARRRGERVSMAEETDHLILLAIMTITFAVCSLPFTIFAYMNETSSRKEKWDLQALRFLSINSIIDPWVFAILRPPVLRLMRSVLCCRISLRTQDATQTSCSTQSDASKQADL
Protocol: Compounds of the invention were tested in a total cAMP assay as follows. […] After overnight incubation, the medium was removed from each well and replaced with 45 μl of assay medium consisted of phenol red free D-MEM/F-12, 0.1% BSA (GibcoBRL) and 0.1 mM 3-isobutyl-1-methyl-xanthine (Sigma). […] Total cAMP (intra- and extra-cellular) was measured by using a cAMP-screen ELISA System (Tropix, #CS1000).

hEP4 receptors = target: T2, hEP4 receptors (Homo sapiens, UniProt P35408); test: EP4 cAMP assay, HEK293-EBNA cells transfected with pCEP4-hEP4 receptors; assay type: cell-based; details: total cAMP, 1 hour
T2 construct: expressed in transfected cells; host or cells: HEK293-EBNA
T2 sequence (P35408 whole entry): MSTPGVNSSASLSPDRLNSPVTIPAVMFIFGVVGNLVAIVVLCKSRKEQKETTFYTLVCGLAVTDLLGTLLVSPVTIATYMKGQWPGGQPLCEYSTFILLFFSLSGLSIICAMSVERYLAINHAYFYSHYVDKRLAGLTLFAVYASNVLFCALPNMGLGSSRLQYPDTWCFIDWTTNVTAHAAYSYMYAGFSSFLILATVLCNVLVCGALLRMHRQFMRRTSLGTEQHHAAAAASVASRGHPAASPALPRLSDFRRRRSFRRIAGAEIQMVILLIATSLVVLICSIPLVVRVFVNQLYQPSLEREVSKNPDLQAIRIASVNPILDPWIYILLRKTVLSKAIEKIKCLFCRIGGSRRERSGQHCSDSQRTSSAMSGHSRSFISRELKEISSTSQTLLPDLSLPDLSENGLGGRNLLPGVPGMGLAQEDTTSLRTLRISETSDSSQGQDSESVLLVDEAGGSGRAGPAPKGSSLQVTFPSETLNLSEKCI
Protocol: Compounds of the invention were tested in a total cAMP assay as follows. HEK293-EBNA cells transfected with pCEP4-hEP4 receptors were seeded in 96 well opaque plate (Costar #3917) at 4×10^4 cells per well in 100 μl of culture medium (D-MEM/F12 supplemented with 10% FBS, […] L-glutamine, and 250 μg/ml of hygromycin; all from GibcoBRL) and incubated at 37° C. After overnight incubation, the medium was removed from each well and replaced with 45 μl of assay medium consisted of phenol red free D-MEM/F-12, 0.1% BSA (GibcoBRL) and 0.1 mM 3-isobutyl-1-methyl-xanthine (Sigma). After 15 minutes of incubation at 37° C., 16-16-dimethyl PGE-2 or compounds at desired concentrations in 20 μl of assay medium were added to cells and further incubated at 37° C. for 1 hour. Total cAMP (intra- and extra-cellular) was measured by using a cAMP-screen ELISA System (Tropix, #CS1000).

[1] = test system: methacholine-induced bronchoconstriction; test: In vivo inhibition of guinea pig broncho-constriction (methacholine-induced); details: Cavia porcellus, IT (intra-tracheal) route, read-out: calculated effective dose (ED50), bronchoconstriction
Excerpt: The activity of compounds of the invention in dilation of bronchiolar muscles, may be tested in different models. Guinea pig pulmonary-cholinergic in vivo model is generally used to test the materials for the treatments of asthma in human (Fleisch et al., 1985) Compounds of the invention can be tested in this methacholine-induced bronchomuscle constriction model as described below.
Groups of 3 Duncan Hartley derived male or female guinea pigs weighing 250±50 g are anesthetized with pentobarbital sodium (50 mg/kg i.p., plus an additional 15 mg/kg i.p. if required) and succinylcholine chloride (2 mg/animal i.p.) is subsequently administered to prevent spontaneous respiration. Body temperature is maintained at 37° to 38° C.
The trachea is cannulated and the guinea pig is ventilated with a Harvard rodent respirator in a closed system. Tracheal pressure is recorded through a side-arm of the cannula connected to a P23ID Statham transducer. […] Mean arterial pressure (BP) is monitored from a cannulated carotid artery, and heart rate (HR) is obtained from chest electrodes arranged for lead II. […]
Compounds of the invention are also tested via intra-tracheal (IT) route of administration. […] Tracheal pressure (ITP), blood pressure and heart rate are measured immediately as indicated in the material and methods sections. […]

LPS-induced TNFα release = test: In vivo inhibition of LPS-induced TNFα release in mice; details: LPS 0.3 mg/kg i.p.
Protocol: The anti-inflammatory activity of compounds of the invention may be assessed after a LPS challenge using the following protocol:
Eight weeks old C3H/H mice (IFFA-CREDO, L'arbresle, France) receive an oral treatment with compounds of the invention 6 different doses (0.001, 0.01, 0.1, 1 or 3 and 10 mg/kg in 0.5% CMC/0.25% tween-20). Six mice are used by group. Fifteen minutes later, endotoxins (O111:B4 Sigma, 0.3 mg/kg) are intraperitoneally injected. Heparinized whole blood is collected by decapitation. TNFα level is determined in plasma by ELISA (R & D Systems, Abdingdon, UK). Control animals receive 0.5% CMC/0.25% tween-20 (10 ml/kg) as vehicle. Data obtained from experiments are expressed as the mean±SEM and analysed using one-way analysis of variance (ANOVA) followed by Dunnett's t-test.

[2] = test system: mature mouse ovulation induction model; test: In vivo ovulation assay (mature mouse ovulation induction model); details: Mus musculus, po, read-out: calculated ED50 (dose of drug which produces 50% of its effect), ovulation; p.o. administration route, mice
Protocol: Ovulation induction activity of compounds of the invention was tested in a mature mouse ovulation induction model.
Mature 10-week-old CD-mice were used. Reagents were prepared as follows: PMSG (pregnant mare serum gonadotropin) (Calbiochem, cat #367222) and hCG (Serono) are diluted in PBS. PGE2 (Cayman, Ann Arbor Mich.) was dissolved in ethanol and diluted with 0.154 M […] Buffer (pH 8.0) to final concentration of ethanol of less than 3 percent. A compound of the invention (based on solubility) was pre-dissolved in ethanol, DMSO or other reagents. The compound of the invention was then diluted with saline or other diluents such as PBS or NP3S (5% N-methyl-pyrrolidinone/30% PEG400/25% PEG200/20% Propylene Glycol in saline). PMSG stimulates ovarian follicular development. After PMSG stimulation, the mature follicules can be stimulated to rupture and release oocytes by an ovulation trigger, such as hCG or a compound of the invention.
The following test protocol is employed for the test animals (typically 5 animals per test group). • Day 1: Inject 5 IU PMSG in 200 μl PBS (i.p. 15:00 PM) • Day 2: No administration • Day 3: Injection of ovulation trigger hCG (i.p.) or hCG replacement (PGE2 or compound of the invention, s.c., i.v. or oral route), 15:00 PM • Day 4: Eighteen hours after injections of the ovulation triggers, animals were sacrificed by CO2 asphyxiation and abdominal cavities were opened using fine scissors and forceps. Uterus, oviducts and ovaries were collected and placed in pre-labeled dishes containing phosphate buffered saline (PBS). The collected tissues were transferred to the laboratory and intact oviduct carefully dissected out from uterus and ovary under the dissection microscope. The dissected oviducts were placed on the glass microscopic slide and covered with another slide. Two slides were taped on two edges. The numbers of ovulated ova in the oviducts were counted using upright microscope with 4× objective and recorded. […]

h-EP2, sequence (P43116 whole entry): as the sequence (P43116 whole entry) above
h-EP4, sequence (P35408 whole entry): as the sequence (P35408 whole entry) above

Row | SMILES | Ki (h-EP4) [µM] | Ki (h-EP2) [µM] | EC50 (hEP2 receptors) [µM] | EC50 (hEP4 receptors) [µM] | other results
1 | CCCC/C=C/C=C\[C@H]1CCC(=O)N1CCc1ccc(C(=O)O)cc1 [Example 1, 4-(2-{(2R)-2-[(1Z,3E)-octa-1,3-dienyl]-5-oxopyrrolidin-1-yl}ethyl)benzoic acid] | 0.025 | 0.088 | 0.197 | 0.02 | –
2 | CC/C=C/C=C\[C@H]1CCC(=O)N1CCc1ccc(C(=O)O)cc1 [Example 7, 4-(2-{(2R)-2-[(1Z,3E)-hexa-1,3-dienyl]-5-oxopyrrolidin-1-yl}ethyl)benzoic acid] | 0.071 | 1.53 | 2.6 | 0.002 | –
3 | CC(C)=CCC/C(C)=C/C=C\[C@H]1CCC(=O)N1CCc1ccc(C(=O)O)cc1 [Example 11, 4-(2-{(2R)-2-[(1Z,3E)-4,8-dimethylnona-1,3,7-trienyl]-5-oxopyrrolidin-1-yl}ethyl)benzoic acid] | 0.045 | 0.41 | 1.05 | 0.002 | –
4 | CC(C)=CCC/C(C)=C/C=C/[C@H]1CCC(=O)N1CCc1ccc(C(=O)O)cc1 [Example 12, 4-(2-{(2R)-2-[(1E,3E)-4,8-dimethylnona-1,3,7-trienyl]-5-oxopyrrolidin-1-yl}ethyl)benzoic acid] | 0.47 | 0.75 | – | – | –
5 | CCCC/C=C(C)/C=C/[C@H]1CCC(=O)N1CCc1ccc(C(=O)O)cc1 [Example 22, 4-(2-{(2R)-2-[(1E,3E)-3-methylocta-1,3-dienyl]-5-oxopyrrolidin-1-yl}ethyl)benzoic acid] | 0.145 | 0.034 | 0.023 | 0.021 | ED50 [1]: 0.4 mg/kg; % of Inhibition of TNF Release Mean ± SEM (LPS-induced TNFα release; oral dose 0.001 mg/kg): 46 ± 2%; % of Inhibition of TNF Release Mean ± SEM (LPS-induced TNFα release; oral dose 0.01 mg/kg): 49 ± 4%; % of Inhibition of TNF Release Mean ± SEM (LPS-induced TNFα release; oral dose 0.1 mg/kg): 59 ± 2%; % of Inhibition of TNF Release Mean ± SEM (LPS-induced TNFα release; oral dose 1 mg/kg): 70 ± 4%; % of Inhibition of TNF Release Mean ± SEM (LPS-induced TNFα release; oral dose 10 mg/kg): 87 ± 2%
6 | C/C(=C\C=C/[C@H]1CCC(=O)N1CCc1ccc(C(=O)O)cc1)CC1CCCC1 [Example 30, 4-(2-{(2)-2-[(1Z,3E)-5-cyclopentyl-4-methylpenta-1,3-dienyl]-5-oxopyrrolidin-1-yl}ethyl)benzoic acid] | 0.117 | 0.06 | – | – | –
7 | C/C(=C\C=C/[C@H]1CCC(=O)N1CCc1ccc(C(=O)O)cc1)c1ccccc1 [Example 32, 4-(2-{(2R)-2-[(1Z,3E)-4-phenylpenta-1,3-dienyl]-5-oxopyrrolidin-1-yl}ethyl)benzoic acid] | 0.029 | 0.749 | – | – | –

Continued, in another order:

Row | Ki (h-EP4) [µM] | Ki (h-EP2) [µM] | EC50 (hEP2 receptors) [µM] | EC50 (hEP4 receptors) [µM] | SMILES | other results
8 | 0.006 | 0.06 | – | – | CCCC/C(C)=C/C=C\[C@H]1CCC(=O)N1CCCc1ccc(C(=O)O)s1 (single isomer, unassigned) [Example 13] | –
9 | 0.006 | 0.06 | 0.049 | 0.002 | CCCC/C(C)=C/C=C\[C@H]1CCC(=O)N1CCCc1ccc(C(=O)O)s1 (single isomer, unassigned) [Example 19] | –
10 | 0.051 | 0.044 | – | – | CCCC/C=C/C=C\[C@H]1CCC(=O)N1CCCc1ccc(C(=O)O)s1 [Example 17, 5-(3-{(2R)-2-[(1Z,3E)-octa-1,3-dienyl]-5-oxopyrrolidin-1-yl}propyl)thiophene-2-carboxylic acid] | –
11 | 0.006 | 0.079 | – | – | CCC/C(C)=C/C=C\[C@H]1CCC(=O)N1CCc1ccc(C(=O)O)cc1 [Example 44, 4-(2-{(2R)-2-[(1Z,3E)-4-methylhepta-1,3-dienyl]-5-oxopyrrolidin-1-yl}ethyl)benzoic acid] | ED50 [2]: 1 mg/kg
12 | 0.164 | 0.036 | – | – | C/C(=C\C=C\[C@H]1CCC(=O)N1CCc1ccc(C(=O)O)cc1)C(C)C [Example 55, 4-(2-{(2R)-2-[(1E,3E)-4,5-dimethylhexa-1,3-dienyl]-5-oxopyrrolidin-1-yl}ethyl)benzoic acid] | –
13 | 0.307 | 0.027 | – | – | O=C(O)c1ccc(CCN2C(=O)CC[C@@H]2/C=C\C=C2CCCCC2)cc1 [Example 56] | –
14 | 0.069 | 0.1 | – | – | O=C(O)c1ccc(CCN2C(=O)CC[C@@H]2/C=C\C=C(/c2ccccc2)C(F)(F)F)cc1 [Example 58] | –
15 | 0.165 | 0.277 | – | – | C/C(=C\C=C\[C@H]1CCC(=O)N1CCc1ccc(C(=O)O)cc1)C1CC1 [Example 63, 4-(2-{(2R)-2-[(1E,3E)-4-cyclopropylpenta-1,3-dienyl]-5-oxopyrrolidin-1-yl}ethyl)benzoic acid] | –
